{"source": "patent US20140127144A1", "about": "“Flavour Modifying Compounds” (Givaudan S. A., priority 2011, published 2014)", "key": {"[1]": {"assay": "Expert tasters, beef bouillon tasted warm", "format": "in vivo", "conditions": "40 ppb in beef bouillon", "text": "Mixture C: commercially available beef bouillon Mixture D: same as Mixture C plus 40 ppb N-acetyl-methionine The soups were tasted warm by a group of expert tasters."}, "[2]": {"assay": "Expert panel tasting in salt reduced soy sauce", "format": "in vivo", "conditions": "0.04 ppm in salt reduced soy sauce", "text": "Mixture A: salt reduced Kikkoman soy sauce containing 9% salt Mixture B: same as Mixture A plus 0.04 ppm N-acetyl-methionine"}, "[3]": {"assay": "Expert panel tasting in aqueous solution of 0.5% NaCl and 0.03% MSG", "format": "in vivo, people", "conditions": "panel of 5", "text": "Mixture C: An aqueous solution of 0.5% NaCl and 0.03% MSG.\nMixture D: The same as C plus 10 ppm N-formyl-DL-phenylalanine.\nMixture C: An aquesous solution of 0.5% NaCL and 0.03% MSG\nMixture D: The same as C plus 50 ppm of N-acetyl-L-isoleucine\nMixture A: An aqueous solution of 0.5% NaCl and 0.03% of MSG.\nMixture B: The same as A plus 25 ppm N-formyl-L-lysine\nMixture C: An aqueous solution of 0.5% NaCl and 0.03% MSG (Mono sodium glutamate)\nMixture D: The same as C plus 75 ppm of N-acetlyl DL-valine"}, "[4]": {"assay": "Expert panel tasting in aqueous solution of 0.5% NaCl, 0.03% MSG and 0.002% ribonucleotides", "format": "in vivo", "conditions": "50 ppm in 0.5% NaCl, panel of 5", "text": "Mixture A: An aqueous solution of 0.5% NaCl, 0.03% MSG and 0.002%\nRibonucleotides GMP:IMP, ratio 1:1)\nMixture B: The same as A plus50 ppm of N-hexanoyl-L-leucine\nMixture A: An aqueous solution of 0.5% NACl, 0.03% MSG and 0.002%\nRibonucleotides (1:1 GMP, IMP)\nMixture B: The same as A plus 50 ppm of N-pentanoyl-L-phenylalanine"}, "[5]": {"assay": "Expert panel tasting, application on soy sauce", "format": "in vivo, people", "conditions": "for taste description of mixture B compared to mixture A, effect assigned to the compound: 150-300 ppm N-acetyl-DL-glutamic acid plus 50-200 ppm N-formyl-glycine together in 5% soy sauce, panel of 5", "text": "Mixture A: 5% of a standard soy sauce in water, Mixture B: Same as mixture A plus 150-300 ppm N-acetyl-DL-glutamic acid plus 50-200 ppm N-formyl-glycine. […] This effect could be assigned to N-acetyl glutamic acid."}, "[6]": {"assay": "Expert panel tasting in aqueous solution of 0.5% NaCl", "format": "in vivo, people", "conditions": "panel of 5", "text": "Mixture A: An aqueous solution of 0.5% NaCl Mixture B: The same as A plus 10 ppm N-formyl-DL-phenylalanine Mixture A: An aqueous solution of 0.5% NaCl Mixture B: The same as A plus 50 ppm of N-acetyl-L-isoleucine Mixture A: An aqueous solution of 0.5% NaCl Mixture B: The same as A plus 10 ppm N-acetyl-DL-valine"}, "[7]": {"assay": "Expert panel tasting, application on Bechamel sauce with cheese", "format": "in vivo, people", "conditions": "for taste description of mixture B compared to mixture A, effect assigned to the compound: 150-300 ppm N-acetyl-DL-glutamic acid plus 50-200 ppm N-formyl-glycine together in Bechamel sauce with cheese, panel of 5", "procedure": "Mixture A: A Bechamel sauce with cheese was prepared by heating up 25 g of wheat flour in 35 g of butter in a saucepan. Let the flour cook shortly. Add 500 g milk, 2.5 g table salt, 0.15 g MSG, 0.075 g nutmeg powder, 0.125 g black pepper and 40 g of cheese powder. Boil the mixture for one minute. Mixture B: The same as mixture A plus 150-300 ppm N-acetyl-DL-glutamic acid plus 50-200 ppm N-formyl-glycine."}, "[8]": {"assay": "Expert panel tasting in chicken broth", "format": "in vivo, people", "conditions": "100 ppm in chicken broth; panel of 5", "text": "Mixture A: A chicken broth Mixture B: The same as A plus 100 ppm of N-acetyl-L-tyrosine"}, "[9]": {"assay": "Panel of experienced tasters, coffee beverage", "format": "in vivo, people", "conditions": "150 ppm in coffee beverage; panel of 8", "procedure": "To a coffee beverage (Starbuck's frappucino) was added 150 ppm of N-acetyl glutamic acid. This product was tasted and compared with the original coffee beverage by a panel of experienced tasters consisting of 8 people (5 men, 3 women aged 35-54)."}, "[10]": {"assay": "Panel of experienced tasters, salad dressing", "format": "in vivo, people", "conditions": "100 ppm in salad dressing; panel of 8", "procedure": "100 ppm of N-acetyl glutamic acid was dissolved in a common salad dressing (Remia met magere yoghurt). This product was tasted and compared with the original salad dressing by a panel of experienced tasters consisting of 8 people (5 men, 3 women aged 35-54)."}, "[11]": {"assay": "Panel of experienced tasters, vanilla yoghurt", "format": "in vivo, people", "conditions": "100 ppm in vanilla yoghurt; panel of 8", "procedure": "To a standard vanilla yoghurt (Campina) was added 100 ppm of N-acetyl glutamic acid. This product was tasted and compared with the original vanilla yoghurt by a panel of experienced tasters consisting of 8 people (5 men, 3 women aged 35-54)."}, "[12]": {"assay": "Panel of experienced tasters, instant mashed potato", "format": "in vivo, people", "conditions": "150 ppm in mashed potato; panel of 8", "procedure": "A standard instant mashed potato powder (Albert Heijn huismerk) was prepared and mixed with 150 ppm of N-acetyl glutamic acid. This product was tasted and compared with the original mashed potatoes by a panel of experienced tasters consisting of 8 people (5 men, 3 women aged 35-54)."}, "[13]": {"assay": "Panel of experienced tasters, hamburgers", "format": "in vivo, people", "conditions": "150 ppm in hamburgers, baked; panel of 8", "procedure": "Hamburgers were prepared from 80% lean beef and 20% fat beef meat containing 0.5% salt, 0.15% black pepper and 0.15% onion powder and 150 ppm of N-acetyl glutamic acid. The hamburgers were baked without additional fat and compared with the same batch of meat to which no N-acetyl glutamic acid was added. This product was tasted and compared with the original hamburgers by a panel of experienced tasters consisting of 8 people (5 men, 3 women aged 35-54)."}, "[14]": {"assay": "Panel of experienced tasters, soy milk", "format": "in vivo, people", "conditions": "100 ppm in soy milk; panel of 8", "procedure": "To a standard soy milk (Alpro) was added 100 ppm of N-acetyl glutamic acid. This product was tasted and compared with the original soy milk by a panel of experienced tasters consisting of 8 people (5 men, 3 women aged 35-54)."}, "[15]": {"assay": "Panel of experienced tasters, cooking oil", "format": "in vivo, people", "conditions": "200 ppm in cooking oil; panel of 8", "procedure": "200 ppm of N-acetyl glutamic acid was dissolved in a common cooking oil (Becel kitchen). This product was tasted and compared with the original cooking oil by a panel of experienced tasters consisting of 8 people (5 men, 3 women aged 35-54)."}, "[16]": {"assay": "Panel of experienced tasters, cola", "format": "in vivo, people", "conditions": "100 ppm in cola; panel of 8", "procedure": "To a standard cola (Pepsi or Coke cola) was added 100 ppm of N-acetyl glutamic acid. This product was tasted and compared with the original colas by a panel of experienced tasters consisting of 8 people (5 men, 3 women aged 35-54)."}, "[17]": {"assay": "Panel of experienced tasters, tomato soup", "format": "in vivo, people", "conditions": "100 ppm in tomato soup; panel of 8", "procedure": "To a standard tomato soup (Albert Heijn huismerk) was added 100 ppm of N-acetyl glutamic acid. This product was tasted and compared with the original tomato soup by a panel of experienced tasters consisting of 8 people (5 men, 3 women aged 35-54)."}, "[18]": {"assay": "Panel of experienced tasters, cream cheese", "format": "in vivo, people", "conditions": "150 ppm in cream cheese; panel of 8", "text": "150 ppm of N-acetyl glutamic acid was thoroughly mixed into Philadelphia brand cream cheese. This product was tasted and compared with the original cream cheese by a panel of experienced tasters consisting of 8 people (5 men, 3 women aged 35-54)."}, "[19]": {"assay": "Panel of experienced tasters, potato chips with cheese sour cream flavour", "format": "in vivo, people", "conditions": "amount not given, panel of 8", "procedure": "Potato chips were prepared in house. A cheese sour cream flavour was prepared by mixing salt (1.5 weight % on the chips), MSG (0.05), whey powder (2.5), cheese powder (1.5), cream powder (0.2), buttermilk powder (0.4) and onion powder (0.2) The powder was applied on plain potato chips. This product was tasted and compared with the chips without N—Ac—Glu by a panel of experienced tasters consisting of 8 people (5 men, 3 women aged 35-54)."}}, "data": [{"smiles": "CSCCC(NC(C)=O)C(=O)O", "note": "(stereo not shown) [N-acetyl-methionine, N-acetyl-methionine (2-acetamido-4-(methylthio)butanoic acid)]", "values": [{"measurement": "taste description of mixture D compared to mixture C", "setting": "[1]", "value": "more salty, longer lasting and lifts the garlic component"}, {"measurement": "taste description of mixture B compared to mixture A", "setting": "[2]", "value": "more salty and has more upfront salty taste"}]}, {"smiles": "NCCCCC(NC=O)C(=O)O", "note": "[N-formyl-L-lysine, alpha-N-formyl-L-lysine]", "values": [{"measurement": "taste description of mixture B compared to mixture A", "setting": "[3]; 25 ppm in 0.5% NaCl and 0.03% MSG", "value": "more umami"}]}, {"smiles": "CCCCCC(=O)N[C@@H](CC(C)C)C(=O)O", "note": "[N-hexanoyl-L-leucine]", "values": [{"measurement": "taste description of mixture B compared to mixture A", "setting": "[4]", "value": "more salty and umami"}]}, {"smiles": "CC(=O)N[C@@H](CCC(=O)O)C(=O)O", "note": "[N-acetyl-L-glutamic acid]", "values": [{"measurement": "taste description compared to mixture A", "setting": "[5]; only 50 -300 ppm N-acetyl-L-glutamic acid on top of mixture A", "value": "more umami and more lingering savoury"}]}, {"smiles": "CC(=O)NC(C(=O)O)C(C)C", "note": "(racemic) [N-acetyl-DL-valine]", "values": [{"measurement": "taste description of mixture B compared to mixture A", "setting": "[6]; 10 ppm in 0.5% NaCl", "value": "more initially salty"}, {"measurement": "taste description of mixture D compared to mixture C", "setting": "[3]; 75 ppm in 0.5% NaCl and 0.03% MSG", "value": "more lingering umami and salivating"}]}, {"smiles": "CC(=O)NC(CCC(=O)O)C(=O)O", "note": "(racemic) [N-acetyl-DL-glutamic acid]", "values": [{"measurement": "taste description compared to mixture A", "setting": "[7]; only 150-300 ppm N-acetyl-DL-glutamic acid on top of mixture A", "value": "more fullness, depth and aftertaste of cheese"}]}, {"smiles": "O=CNCC(=O)O", "note": "[N-formyl glycine]", "values": [{"measurement": "taste description of mixture B compared to mixture A, effect assigned to the compound", "setting": "[7]", "value": "stronger initial bite, is more salty and more complex"}, {"measurement": "taste description compared to pure mixture A", "setting": "[7]; only 50-200 ppm N-formyl glycine on top of mixture A", "value": "more bite, more complex note and saltiness"}, {"measurement": "taste description of mixture B compared to mixture A, effect assigned to the compound", "setting": "[5]", "value": "stronger initial salt spike, was more long-lasting, complex and more succulent"}, {"measurement": "taste description compared to pure mixture A", "setting": "[5]; only 50-200 ppm N-formyl-glycine on top of mixture A", "value": "more salty, more complex, long lasting and succulent"}]}, {"smiles": "CC(=O)N[C@@H](Cc1ccc(O)cc1)C(=O)O", "note": "[N-acetyl-L-tyrosine]", "values": [{"measurement": "taste description of mixture B compared to mixture A", "setting": "[8]", "value": "more salty, lingering umami and shows delayed numbing"}]}, {"smiles": "CC(=O)N[C@@H](CCC(=O)O)C(=O)O", "note": "[N-acetyl glutamic acid]", "values": [{"measurement": "taste description compared with the original product", "setting": "[9]", "value": "slightly more bitter, had reduced metallic retort notes and had increased carmellic notes"}, {"measurement": "taste description compared with the original product", "setting": "[10]", "value": "more balanced, less sour, fuller, salivating and more lingering"}, {"measurement": "taste description compared with the original product", "setting": "[11]", "value": "less sour, more intense vanilla, more creamy, lingering and had more body"}, {"measurement": "taste description compared with the original product", "setting": "[12]", "value": "more salty, more creamy and more full"}, {"measurement": "taste description of mixture B compared to mixture A, effect assigned to the compound", "setting": "[7]", "value": "more lingering, and giving fullness, depth and aftertaste of dairy cheese products"}, {"measurement": "taste description compared with the original product", "setting": "[13]", "value": "more meaty, more succulent, more juicy, more fatty and more expanding in the mouth"}, {"measurement": "taste description compared with the original product", "setting": "[14]", "value": "slightly more sweet and masked some of the soy off-notes"}, {"measurement": "taste description compared with the original product", "setting": "[15]", "value": "more fatty, more creamy, more mouthcoating and gave a better buttery aftertaste"}, {"measurement": "taste description of mixture B compared to mixture A, effect assigned to the compound", "setting": "[5]", "value": "more umami and more lingering savoury"}, {"measurement": "taste description compared with the original product", "setting": "[16]", "value": "slightly less acidic, more syrupy and more smooth"}, {"measurement": "taste description compared with the original product", "setting": "[17]", "value": "less sour, had more body, was more salivating and had a stronger cooked taste"}, {"measurement": "taste description compared with the original product", "setting": "[18]", "value": "saltier, creamier, more umami, more body, lingering and mouth-coating"}, {"measurement": "taste description compared with the chips without N-Ac-Glu", "setting": "[19]", "value": "more salty, more creamy, gave more mouthwatering and had increased cheese intensity"}]}, {"smiles": "CC[C@H](C)[C@H](NC(C)=O)C(=O)O", "note": "[N-acetyl-L-isoleucine]", "values": [{"measurement": "taste description of mixture B compared to mixture A", "setting": "[6]; 50 ppm in 0.5% NaCl", "value": "more salty"}, {"measurement": "taste description of mixture D compared to mixture C", "setting": "[3]; 50 ppm in 0.5% NaCl and 0.03% MSG", "value": "more umami"}]}, {"smiles": "O=CNC(Cc1ccccc1)C(=O)O", "note": "(racemic) [N-formyl-DL-phenylalanine]", "values": [{"measurement": "taste description of mixture B compared to mixture A", "setting": "[6]; 10 ppm in 0.5% NaCl", "value": "more salty"}, {"measurement": "taste description of mixture D compared to mixture C", "setting": "[3]; 10 ppm in 0.5% NaCl and 0.03% MSG", "value": "more umami"}]}, {"smiles": "CCCCC(=O)N[C@@H](Cc1ccccc1)C(=O)O", "note": "[N-pentanoyl-L-phenylalanine]", "values": [{"measurement": "taste description of mixture B compared to mixture A", "setting": "[4]", "value": "more salty and umami"}]}]}
